Test results reported in US20110123483A1, “HMGB1 FOR CANCER TREATMENT” (DEUTSCHES KREBSFORSCHUNGSZENTRUM, priority 2009, published 2011).

Experiments:
Type in all cases: cell-based, human
mitochondrial proteome = test: 2-D gel electrophoresis / 2-D western blot of the mitochondrial proteome
Method: Mitochondrial extracts of U251 MG cells precipitated according to the ProteoExtract Protein Precipitation Kit (Calbiochem) were pipetted into the sample cup of each strip holder. For large format 2-D-electrophoresis with silver staining and 2-D-western blots, isoelectric focusing (IEF) was performed as described previously (Schutt et al., 2002) using dry polyacrylamide gel strips (IPG, 24 cm) with an immobilized pH gradient pH 3-10 and the IPGphor1 Isolectric Focusing System (Amersham Pharmacia Biotech). IPG strips were rehydrated in reswelling buffer (7 M urea, 2 M thiourea, 2% (w/v) CHAPS, 65 mM dithiothreitol (DTT), 0.8% Pharmalite) overnight. The IEF protocol started at 500 V for 4 h, followed by an increase from 500 V to 4000 V for 10 h and finally 8000 V for 10 h. Equilibration buffer for IPG strips contained 75 mM Tris-HCl, pH 8.8, 2% SDS, 6 M urea, 29.3% glycerol and 0.002% (w/v) bromophenol blue solution, supplemented with 1.5% DDT for the first 15 min and with 2.5% (w/v) iodoacetamide for the following 15 min. For the second dimension the ETTAN Dalt six electrophoresis system was used. After draining the equilibration solution on filter paper the IPG strips were placed on the SDS gel; the electrical settings were 10 mA/gel, 80 V, 1 W/gel for 1 h, followed by 40 mA/gel, 500 V, 13 W/gel for 5-6 h. […]

U251 MG cells = test: Subcellular fractionation and Western blot: cytochrome c release, caspase 3 cleavage; settings: rhHMGB1 80 nM, 24 h (FIG. 6)
Method: The U251 MG tumor cells were lysed in lysis buffer containing 20 mmol/L Tris-HCl (pH 7.4), 137 mmol/L NaCl, 10% (v/v) glycerine, 1% Triton X-100, 2 mmol/L EDTA, 100 mmol/L phenylmethylsulfonyl fluoride, and protease inhibitors (Complete mini; Roche Molecular Biochemicals). For the detection of phosphoprotein levels, 10 mmol/L NaPPi, 50 mmol/L NaF, and 20 mmol/L NaVO4 were added to the lysis buffer. After 15 min incubation on ice, the lysates were centrifuged at 14,000×g for 10 min. The total protein concentration of the lysates was measured using the Bradford assay (Bio-Rad). Soluble protein (25-100 μg per lane) was separated on 10% to 15% polyacrylamide gels and blotted onto nitrocellulose by standard procedures. The membranes were washed, incubated with primary antibody as indicated: mouse anti-human caspase-3 (1:500, Imgenex, San Diego, Calif.); polyclonal rabbit anti-human phosphorylated p44/42 mitogen-activated protein kinase and polyclonal rabbit anti-human phosphorylated stress-activated protein kinase/JNK (1:1,000, Cell Signaling Technology, Inc.); polyclonal anti-rabbit JNK 54/46 (1:1,000, Cell Signaling Technology, Inc.); polyclonal rabbit anti-human IkBalpha (1:500, Santa Cruz Biotechnology, Inc.); mouse monoclonal anti-human BNIP3 (1:10,000, R&D Systems, Inc.); mouse monoclonal anti-human phosphorylated-histone H2A.X (Upstate, Inc.); mouse monoclonal anti-human cytochrome c (1:100, BD Biosciences Pharmingen GmbH, Heidelberg, Germany); mouse anti-human cytochrome c oxidase complex IV (1:100, Molecular Probes, Invitrogen, Karlsruhe, Germany); polyclonal rabbit antimalondialdehyde (1:250, Calbiochem, Merck, Darmstadt, Germany) and mouse monoclonal antibodies to β-tubulin or β-actin (1:3,000, Sigma Chemical Co., St. Louis, Mo.), washed, and incubated with the appropriate secondary antibody (1:3,000; horseradish peroxidase-conjugated, Bio-Rad). Bound antibodies were visualized using an enhanced chemiluminescence detection system (GE-Healthcare, Uppsala, Sweden).
Enrichment of mitochondrial fractions was performed using the ApoAlert Cell Fractionation Kit (Clontech, Mountain View, Calif.) as described previously (Gdynia et al., 2008). Briefly, after centrifugation and several washing steps, the cell pellet was resuspended in ice-cold 1× Fractionation Buffer Mix containing protease inhibitors (Complete mini; Roche Molecular Biochemicals, Indianapolis, Ind.) and 1 mM 1,4-Dithio-DL-threitol solution (DTT). After 10 min incubation on ice, cells were homogenized with a dounce tissue grinder. Efficiency of homogenization was controlled by microscopy. The homogenate was centrifuged at 700×g for 10 min at 4° C. and the resulting supernatant at 10,000×g for 25 min at 4° C. […]

JNK1/2 = test: Western blot analysis of JNK1/2 phosphorylation; settings: 24 h (FIG. 3C)
Method: The U251 MG tumor cells were lysed in lysis buffer containing 20 mmol/L Tris-HCl (pH 7.4), 137 mmol/L NaCl, 10% (v/v) glycerine, 1% Triton X-100, 2 mmol/L EDTA, 100 mmol/L phenylmethylsulfonyl fluoride, and protease inhibitors (Complete mini; Roche Molecular Biochemicals). For the detection of phosphoprotein levels, 10 mmol/L NaPPi, 50 mmol/L NaF, and 20 mmol/L NaVO4 were added to the lysis buffer. After 15 min incubation on ice, the lysates were centrifuged at 14,000×g for 10 min. The total protein concentration of the lysates was measured using the Bradford assay (Bio-Rad). Soluble protein (25-100 μg per lane) was separated on 10% to 15% polyacrylamide gels and blotted onto nitrocellulose by standard procedures. […]

## rhHMGB1: recombinant human High Mobility Group B1 protein (Sigma Aldrich)
Mitochondrial proteome; 80 nM, 24 h (FIG. 11B)
  mitochondrial proteome, 2-D silver staining: massive depletion of the isoelectric-neutral proteins
Mitochondrial proteome; alkaline range (FIG. 11C)
  covalently bound malondialdehyde, 2-D western blot: substantial increase in covalently bound malondialdehyde
U251 MG cells
  activation of caspase 3: neither activation of caspase 3
  release of cytochrome c: nor release of cytochrome c was observed
JNK1/2
  phosphorylation of c-Jun N-terminal kinase 1/2 (JNK): continuous and dose dependent phosphorylation
